The target in series [1] is T1, Sodium channel protein type 9 subunit alpha (Homo sapiens, UniProt Q15858). The experiment in a line: Inhibition of human Nav1.7 channel expressed in HEK293 cells by FRET assay. It is filed as cell-based.
Target sequence in this assay (Q15858 whole entry): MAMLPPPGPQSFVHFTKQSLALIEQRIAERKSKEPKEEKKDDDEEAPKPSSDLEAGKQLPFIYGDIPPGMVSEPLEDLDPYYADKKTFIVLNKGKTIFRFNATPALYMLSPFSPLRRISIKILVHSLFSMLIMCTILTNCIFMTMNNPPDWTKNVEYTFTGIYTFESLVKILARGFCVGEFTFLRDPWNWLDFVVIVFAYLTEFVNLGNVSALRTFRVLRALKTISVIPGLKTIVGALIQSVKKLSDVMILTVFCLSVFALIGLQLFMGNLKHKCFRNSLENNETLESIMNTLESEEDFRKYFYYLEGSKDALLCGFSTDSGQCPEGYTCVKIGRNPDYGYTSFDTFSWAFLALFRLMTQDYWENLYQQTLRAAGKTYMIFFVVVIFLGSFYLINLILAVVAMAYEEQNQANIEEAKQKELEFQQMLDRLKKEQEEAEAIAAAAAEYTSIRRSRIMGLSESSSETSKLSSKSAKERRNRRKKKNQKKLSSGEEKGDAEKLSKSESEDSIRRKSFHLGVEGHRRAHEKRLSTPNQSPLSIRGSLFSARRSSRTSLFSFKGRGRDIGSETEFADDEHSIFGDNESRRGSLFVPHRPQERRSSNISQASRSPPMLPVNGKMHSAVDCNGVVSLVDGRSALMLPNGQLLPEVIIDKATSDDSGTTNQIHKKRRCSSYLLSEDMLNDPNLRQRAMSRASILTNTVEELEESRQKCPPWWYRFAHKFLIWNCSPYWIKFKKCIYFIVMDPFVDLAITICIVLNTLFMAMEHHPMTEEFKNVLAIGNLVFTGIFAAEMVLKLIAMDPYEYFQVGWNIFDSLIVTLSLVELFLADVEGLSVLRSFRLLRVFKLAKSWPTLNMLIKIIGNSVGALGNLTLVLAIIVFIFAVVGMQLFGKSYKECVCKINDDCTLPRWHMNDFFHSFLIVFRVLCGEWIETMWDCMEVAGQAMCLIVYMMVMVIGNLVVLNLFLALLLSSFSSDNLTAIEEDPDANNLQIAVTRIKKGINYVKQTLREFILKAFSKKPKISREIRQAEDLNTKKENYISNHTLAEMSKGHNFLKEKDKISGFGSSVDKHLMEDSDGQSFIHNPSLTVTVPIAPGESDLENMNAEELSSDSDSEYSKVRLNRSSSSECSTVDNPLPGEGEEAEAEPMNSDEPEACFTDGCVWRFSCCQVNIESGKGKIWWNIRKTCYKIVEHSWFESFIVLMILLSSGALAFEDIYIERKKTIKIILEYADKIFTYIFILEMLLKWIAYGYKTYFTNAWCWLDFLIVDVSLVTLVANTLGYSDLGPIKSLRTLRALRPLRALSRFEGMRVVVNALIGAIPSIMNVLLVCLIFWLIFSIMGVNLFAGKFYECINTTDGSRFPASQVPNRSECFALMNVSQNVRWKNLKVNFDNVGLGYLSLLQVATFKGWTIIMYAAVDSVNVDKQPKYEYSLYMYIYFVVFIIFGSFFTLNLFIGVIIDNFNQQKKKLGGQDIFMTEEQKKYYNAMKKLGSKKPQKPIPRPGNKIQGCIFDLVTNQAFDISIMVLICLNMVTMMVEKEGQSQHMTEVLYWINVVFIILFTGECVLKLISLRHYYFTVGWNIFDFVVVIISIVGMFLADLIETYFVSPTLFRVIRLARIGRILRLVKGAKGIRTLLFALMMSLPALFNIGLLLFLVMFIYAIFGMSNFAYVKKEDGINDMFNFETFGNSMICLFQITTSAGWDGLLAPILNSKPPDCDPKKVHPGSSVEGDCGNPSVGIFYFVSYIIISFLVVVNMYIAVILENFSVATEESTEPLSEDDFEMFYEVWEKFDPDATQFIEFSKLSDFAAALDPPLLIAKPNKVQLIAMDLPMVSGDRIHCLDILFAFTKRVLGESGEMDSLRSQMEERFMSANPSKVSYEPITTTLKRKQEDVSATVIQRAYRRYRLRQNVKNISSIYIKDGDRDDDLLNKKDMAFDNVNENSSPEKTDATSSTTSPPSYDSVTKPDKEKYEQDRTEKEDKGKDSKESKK
The target in series [2] is T1, Sodium channel protein type 9 subunit alpha. In words: Inhibition of human Nav1.7 channel expressed in HEK293 cells at 1 uM by FRET assay. Format: cell-based.
Target sequence in this assay (Q15858 whole entry, looked up): as the sequence (Q15858 whole entry) above
The next series addresses hERG (KCNH2) (Homo sapiens, UniProt Q12809). The experiment in a line: (§1) Displacement of [35S]MK-0499 from human ERG expressed in HEK293 cells at 10 uM […]. It is filed as cell-based. The settings on record: HEK293 cells expressing human ERG, probe [35S]MK-0499. (Displacement assays read how much labelled ligand stays bound in the presence of the test substance.)
Series [3] concerns Rattus norvegicus. In words: Analgesic activity in SNL rat neuropathic pain model assessed as reversal of allodynia at 10 mg/kg, po after 4 hrs. Format: functional.
In series [4] the test system is Rattus norvegicus. In words: Analgesic activity in SNL rat neuropathic pain model assessed as reversal of allodynia at 10 mg/kg, po after 2 hrs. It is filed as functional.
Series [5] relates to Rattus norvegicus. The experiment in a line: Analgesic activity in SNL rat neuropathic pain model assessed as reversal of allodynia at 10 mg/kg, po after 3 hrs. Format: functional.
The nature of series [6]: Oral bioavailability in Sprague-Dawley rat at 3 mg/kg. It is filed as ADME, organism-based. Conditions: in vivo.
Series [7] can be described thus: Half life in Sprague-Dawley rat at 1 mg/kg, iv or 3 mg/kg, po. Format: ADME, organism-based. The settings on record: in vivo.
Series [8] can be described thus: Plasma clearance in Sprague-Dawley rat at 1 mg/kg, iv or 3 mg/kg, po. It is filed as ADME, organism-based.
Series [9] deals with Voltage-gated inwardly rectifying potassium channel KCNH2 (Homo sapiens, UniProt Q12809). Described as §1. Conditions: hek293, 10 µM, 10 µM. It is filed as cell-based.

pIC50: −log10 of the molar value.

From ChEMBL document CHEMBL1155991, “Discovery of isoxazole voltage gated sodium channel blockers for treatment of chronic pain” (Bioorg Med Chem Lett, 2009) come the findings set out here.

Sequence of hERG (KCNH2) (Q12809 whole entry): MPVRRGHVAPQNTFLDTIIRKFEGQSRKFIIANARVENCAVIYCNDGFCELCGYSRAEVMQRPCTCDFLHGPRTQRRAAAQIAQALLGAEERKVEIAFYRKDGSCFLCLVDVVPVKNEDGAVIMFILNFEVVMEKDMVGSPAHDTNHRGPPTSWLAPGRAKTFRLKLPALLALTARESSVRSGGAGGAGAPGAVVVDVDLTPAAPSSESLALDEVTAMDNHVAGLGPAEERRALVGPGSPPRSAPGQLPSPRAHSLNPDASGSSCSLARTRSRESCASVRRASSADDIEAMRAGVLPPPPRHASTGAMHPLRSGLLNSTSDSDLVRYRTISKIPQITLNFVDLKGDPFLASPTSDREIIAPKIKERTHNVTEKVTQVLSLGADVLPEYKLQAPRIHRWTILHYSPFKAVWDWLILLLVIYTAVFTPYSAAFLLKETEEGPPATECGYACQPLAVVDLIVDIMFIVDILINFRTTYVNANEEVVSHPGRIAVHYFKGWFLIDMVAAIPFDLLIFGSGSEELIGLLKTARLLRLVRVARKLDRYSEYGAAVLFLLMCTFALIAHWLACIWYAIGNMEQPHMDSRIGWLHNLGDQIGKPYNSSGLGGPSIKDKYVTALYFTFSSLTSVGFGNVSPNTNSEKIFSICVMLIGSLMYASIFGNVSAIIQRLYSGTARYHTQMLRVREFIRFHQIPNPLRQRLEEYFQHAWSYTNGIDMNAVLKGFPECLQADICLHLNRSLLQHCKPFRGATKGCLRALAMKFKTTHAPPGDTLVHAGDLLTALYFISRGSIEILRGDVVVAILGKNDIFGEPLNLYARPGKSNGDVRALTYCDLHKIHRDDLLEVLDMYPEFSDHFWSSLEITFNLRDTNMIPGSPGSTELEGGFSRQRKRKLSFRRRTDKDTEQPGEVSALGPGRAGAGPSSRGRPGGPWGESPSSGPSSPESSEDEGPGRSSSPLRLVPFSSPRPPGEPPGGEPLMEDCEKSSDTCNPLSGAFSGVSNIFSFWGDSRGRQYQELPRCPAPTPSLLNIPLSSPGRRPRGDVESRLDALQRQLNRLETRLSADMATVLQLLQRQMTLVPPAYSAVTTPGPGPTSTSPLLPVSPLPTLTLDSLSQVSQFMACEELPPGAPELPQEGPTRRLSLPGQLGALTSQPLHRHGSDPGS
Sequence of Voltage-gated inwardly rectifying potassium channel KCNH2 (Q12809 whole entry): as above

Usually pIC50 stands for the negative decadic logarithm of the IC50, by convention in mol/L. On to `O=C(NC1(c2ccccc2)CCCCC1)[C@@H]1CCC[C@H]1c1cc(-c2ccccc2)on1`, for which the negative logarithm of the IC50 (pIC50) in series [1] is 6.24.

In general, inhibition refers to the percentage by which the read-out fell short of the control. `O=C(NC1(c2ccccc2)CCC1)[C@@H]1CCC[C@H]1c1cc(-c2c(O)cccc2C(F)(F)F)on1` had an inhibition in series [2] of 1%.

`O=C(NC1(c2ccccc2F)CCC1)[C@@H]1CCC[C@H]1c1cc(-c2ccccc2)on1`: the negative-log IC50 (pIC50) in series [1] is 6.35. On hERG (KCNH2), this molecule had an inhibition at 10 µM of 40%.

As for `O=C(NC1(c2ccccc2)CCC1)[C@@H]1CCC[C@H]1c1cc(-c2ccccc2O)on1`, the inhibition at 10 µM at hERG (KCNH2) turned out to be 54%. The molecule also displayed an inhibition in series [2] of 44%.

Take `O=C(NC1(c2ccccc2)CC(O)C1)[C@@H]1CCC[C@H]1c1cc(-c2ccccc2)on1` (some centres undefined): in [1], the pIC50 is under 5.30.

As to `O=C(NC1(c2ccccc2)CC(F)(F)C1)[C@@H]1CCC[C@H]1c1cc(-c2ccccc2)on1`, the inhibition at 10 µM on hERG (KCNH2) is 27%. The molecule also showed an inhibition in series [2] of 41%.

Molecule `O=C(NC1(c2ccccc2)CCC1)[C@@H]1CCC[C@H]1c1cc(-c2ccccc2C(F)(F)F)on1` showed a pIC50 in series [1] of 6.13. In addition, the inhibition at 10 µM on hERG (KCNH2) came to 91%.

Molecule `O=C(NC1(c2ccccc2)CC(F)C1)[C@@H]1CCC[C@H]1c1cc(-c2ccccc2)on1` (stereo in doubt; 17) had a pIC50 in [1] of 6.74. Further, at 10 µM the inhibition on hERG (KCNH2) was 46%.

Molecule `O=C(NC1(c2ccccc2)CCC1)[C@@H]1CCC[C@H]1c1cc(-c2cccc(OC(F)(F)F)c2O)on1` had a pIC50 in [1] of 6.59. The same molecule had an inhibition at 10 µM at hERG (KCNH2) of 47%.

As to `O=C(NC1(c2cccc(C(F)(F)F)c2)CCC1)[C@@H]1CCC[C@H]1c1cc(-c2ccccc2)on1`, in [1], the pIC50 is 6.23. Moreover, 10 µM produced 89% inhibition on hERG (KCNH2).

Turning to `COc1cccc(-c2cc([C@@H]3CCC[C@H]3C(=O)NC3(c4ccccc4)CCC3)no2)n1`, the pIC50 in [1] was 6.72. Also, testing at 10 µM on hERG (KCNH2) gave an inhibition of 54%.

In turn, `CC(NC(=O)[C@@H]1CCC[C@H]1c1cc(-c2ccccc2)on1)c1ccccc1` (some centres undefined) had a negative-log IC50 (pIC50) in series [1] of 5.77. This molecule displayed an inhibition at 10 µM at hERG (KCNH2) of 47%.

Take `O=C(NC1(c2ccccc2)CCC1)[C@@H]1CCC[C@H]1c1cc(-c2cccc(C(F)(F)F)c2O)on1` (stereo in doubt; 30): in series [1], the pIC50 is 6.47. This molecule also gave an inhibition at 10 µM on hERG (KCNH2) of 45%.

As to `CN(Cc1ccc(-c2ccccc2S(N)(=O)=O)cc1)C(=O)[C@@H]1CCC[C@H]1C(=O)NCc1ccc(OC(F)(F)F)cc1`, the Activity in the series on Rattus norvegicus [3] came out at 28%; in the series with Rattus norvegicus [4], 30%; in the series with Rattus norvegicus [5], 35%.

For `O=C(NC1(c2ccccc2)CCC1)[C@@H]1CCC[C@H]1c1cc(-c2ccc(C(F)(F)F)cc2O)on1`, in series [1], the negative-log IC50 (pIC50) is 6.52. The molecule also registered an inhibition at 10 µM at hERG (KCNH2) of 72%.

The molecule `O=C(NC1(c2ccccc2)CCC1)[C@@H]1CCC[C@H]1c1cc(-c2ccccc2Cl)on1` gave a pIC50 in series [1] of 6.74. Also, on hERG (KCNH2), the inhibition at 10 µM was determined as 76%.

`O=C(NC1(c2ccccc2)CCC1)[C@@H]1CCC[C@H]1c1cc(-c2cccc(=O)[nH]2)on1` showed an inhibition in series [2] of 0%.

`O=C(NC1(c2ccccc2)CCC1)[C@@H]1CCC[C@H]1c1cc(-c2cccc(C(F)(F)F)c2O)on1` (stereo in doubt; 30a): the negative-log IC50 (pIC50) in series [1] is 6.37.

For `CC(C)(NC(=O)[C@@H]1CCC[C@H]1c1cc(-c2ccccc2)on1)c1ccccc1`, the negative logarithm of the IC50 (pIC50) in [1] is 6.37. The molecule further registered an inhibition at 10 µM at hERG (KCNH2) of 45%.

As for `COc1cccc(-c2cc([C@@H]3CCC[C@H]3C(=O)NC3(c4ccccc4)CCC3)no2)c1`, in series [1], the pIC50 was 7.70. Also, on hERG (KCNH2), the inhibition at 10 µM was determined as 62%.

Broadly, the bioavailability is the share of a dose that reaches the circulation, judged against a reference dose that is usually intravenous. Read a high bioavailability as good availability. For orientation: half-life means the time needed for the level to fall by half in the phase considered. Higher therefore signals slow loss. `O=C(NC1(c2ccccc2)CCC1)[C@@H]1CCC[C@H]1c1cc(-c2cccc(C(F)(F)F)n2)on1` gave a negative logarithm of the IC50 (pIC50) in series [1] of 6.66. Moreover, the bioavailability in series [6] turned out to be 36%. For the same molecule, in [7], the half-life was 90.6 min. Also, the inhibition at 10 µM on hERG (KCNH2) stood at 22%. The clearance in series [8] amounted to 135 mL/min/kg.

In the case of `CC1(c2ccccc2)CC([C@@H]2CCC[C@H]2C(=O)NC2(c3ccccc3)CCC2)=NO1` (some centres undefined), the inhibition in [2] was 8%.

In turn, `O=C(NC1(c2ccccc2)CCC1)[C@@H]1CCC[C@H]1c1cc(-c2ccccc2)on1` gave a pIC50 in [1] of 6.92. The molecule further had an inhibition at 10 µM at hERG (KCNH2) of 37%.

In series [1], `COc1ccccc1-c1cc([C@@H]2CCC[C@H]2C(=O)NC2(c3ccccc3)CCC2)no1` gave a pIC50 of 6.41. Also, on hERG (KCNH2), the inhibition at 10 µM came out at 54%.

In the case of `O=C(NC1(c2ccccc2)CCC1)[C@@H]1CCC[C@H]1c1cc(-c2cc(C(F)(F)F)ccc2O)on1`, in series [2], the inhibition is 1%.

On to `O=C(NC1(c2ccccc2)CCC1)[C@@H]1CCC[C@H]1c1cc(-c2ccc(O)cc2)on1`, for which the pIC50 in series [1] is 6.89. This molecule also returned an inhibition at 10 µM on hERG (KCNH2) of 15%.

Molecule `COc1ccc(-c2cc([C@@H]3CCC[C@H]3C(=O)NC3(c4ccccc4)CCC3)no2)cc1` showed a pIC50 in [1] of 6.74. Besides, on hERG (KCNH2), the inhibition at 10 µM was found to be 44%.

In series [1], `COC1CC(NC(=O)[C@@H]2CCC[C@H]2c2cc(-c3ccccc3)on2)(c2ccccc2)C1` (some centres undefined) gave a pIC50 of 6.42. For the same molecule, the inhibition at 10 µM at hERG (KCNH2) was 51%.

`O=C(NC1(c2ccccc2)CCC1)[C@@H]1CCC[C@H]1c1cc(-c2cccc(C(F)(F)F)c2O)on1` (stereo in doubt; 30b) had a negative-log IC50 (pIC50) in series [1] of under 5.00.

Regarding `O=C(NC1(c2ccc(F)cc2)CCC1)[C@@H]1CCC[C@H]1c1cc(-c2ccccc2)on1`, the pIC50 in [1] was 7.08. In addition, the inhibition at 10 µM on hERG (KCNH2) stood at 81%.

In [1], `O=C(NC1(c2ccccc2)CC(F)C1)[C@@H]1CCC[C@H]1c1cc(-c2ccccc2)on1` (stereo in doubt; 18) had a negative-log IC50 (pIC50) of 6.80. Also, in [9], the “inhibition (INH)” value is 59%.

With `O=C(NC1(c2ccccc2)CCC1)[C@@H]1CCC[C@H]1c1cc(-c2cccc(O)c2)on1`, the negative-log IC50 (pIC50) in series [1] is 6.68. The molecule also gave an inhibition at 10 µM at hERG (KCNH2) of 64%.

Consider `O=C(NC1(c2ccccc2)CCC1)[C@@H]1CCC[C@H]1c1cc(-c2cccc(OC(F)(F)F)c2)on1`, for which the pIC50 in series [1] was 6.43. In [6], this molecule displayed a bioavailability of 46%. In series [7], this molecule showed a half-life of 156 min. Moreover, at 10 µM the inhibition at hERG (KCNH2) was 55%. Further, the clearance in [8] came out at 89 mL/min/kg.

In series [2], `O=C(NC1(c2ccccc2)CCC1)[C@@H]1CCC[C@H]1c1cc(-c2ccc(O)c(C(F)(F)F)c2)on1` showed an inhibition of 0%.

`O=C(NCc1ccccc1)[C@@H]1CCC[C@H]1c1cc(-c2ccccc2)on1` had an inhibition at 10 µM at hERG (KCNH2) of 35%. This molecule also showed an inhibition in series [2] of 37%.

Consider `O=C(NC1(c2ccccc2)CCCC1)[C@@H]1CCC[C@H]1c1cc(-c2ccccc2)on1`, for which the pIC50 in series [1] is 6.66. On hERG (KCNH2), 10 µM produced 85% inhibition.

On to `O=C(NC1(c2cccc(F)c2)CCC1)[C@@H]1CCC[C@H]1c1cc(-c2ccccc2)on1`, for which the pIC50 in series [1] is 6.96. The same molecule yielded an inhibition at 10 µM at hERG (KCNH2) of 64%.

For `O=C(NC1(c2ccccc2)CC1)[C@@H]1CCC[C@H]1c1cc(-c2ccccc2)on1`, the pIC50 in series [1] is 6.36. This molecule gave an inhibition at 10 µM at hERG (KCNH2) of 47%.
